# Patent publication US20230226074A1, “METHODS OF USE FOR PYRIMIDINES AS FERROPORTIN INHIBITORS” (Global Blood Therapeutics, Inc., priority 2020, published 2023)
# Target: T1, human ferroportin (Homo sapiens, UniProt Q9NP59)
# T1 construct: luciferase reporter (probably NanoLuc, inferred from the Nano-Glo Luciferase Assay System read-out); expressed in transfected cells; host or cells: CHO cells, stably transfected, expression induced with doxycycline
# T1 sequence (Q9NP59 1-571): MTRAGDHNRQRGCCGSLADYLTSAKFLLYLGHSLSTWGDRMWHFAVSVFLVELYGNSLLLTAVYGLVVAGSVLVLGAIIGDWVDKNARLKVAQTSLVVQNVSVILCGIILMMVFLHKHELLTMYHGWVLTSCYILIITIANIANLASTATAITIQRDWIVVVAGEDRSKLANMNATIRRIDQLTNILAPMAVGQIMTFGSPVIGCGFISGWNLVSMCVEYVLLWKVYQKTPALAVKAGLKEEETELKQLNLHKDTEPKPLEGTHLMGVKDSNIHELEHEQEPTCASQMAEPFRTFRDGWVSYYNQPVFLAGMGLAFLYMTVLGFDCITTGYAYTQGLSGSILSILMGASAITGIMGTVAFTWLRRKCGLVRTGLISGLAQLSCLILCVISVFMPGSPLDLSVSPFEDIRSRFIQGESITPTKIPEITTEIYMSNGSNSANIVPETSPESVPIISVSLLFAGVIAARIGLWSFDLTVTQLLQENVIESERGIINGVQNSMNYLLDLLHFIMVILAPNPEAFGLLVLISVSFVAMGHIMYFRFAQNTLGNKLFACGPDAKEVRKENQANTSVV
# Assay: In-vitro ferroportin internalization assay (luciferase reporter)
# Type: cell-based
# Settings: average pEC50; stably-transfected CHO cell line expressing human ferroportin tagged to a luciferase reporter; 6 h incubation with test compound
# Method: The protocol for this assay is generally as described in WO2018/128828, incorporated herein by reference in its entirety. Functional internalization of ferroportin protein was measured using a stably-transfected CHO cell line expressing the human ferroportin tagged to a luciferase reporter. Cells were plated for 24 h in the presence of ferric ammonium citrate (FAC). Ferroportin protein expression was induced with doxycycline for 24 h. The next day, the compounds were added. Test compounds were dissolved in DMSO. Cells were incubated with the test compounds for 6 h, and subsequently luciferase activity was measured using the Nano-Glo Luciferase Assay System and Glomax (Promega, Madison, Wis.). The average pEC50 was determined for the test compounds.
row,Compound,pEC50
1,"COc1ccnc(-c2nc3c(c(N(C)CC(=O)N[C@H]4CCC[C@H]4O)n2)CCC3)c1 (single isomer, unassigned) [Compound 171]",7.2
2,"COc1ccnc(-c2nc3c(c(N(C)CC(=O)N[C@H]4CCC[C@@H]4O)n2)CCC3)c1 (single isomer, unassigned) [Compound 173]",6.8
3,"CN(CC(=O)Nc1cccc(F)c1)c1nc(-c2ccccn2)nc2c1CCC2 [Compound 74, N-(3-fluorophenyl)-2-{methyl[2-(pyridin-2-yl)-5H,6H,7H-cyclopenta[d]pyrimidin-4-yl]amino}acetamide]",7.5
4,"COc1ccnc(-c2nc3c(c(N(C)CC(=O)NC(C)(C)CO)n2)CCC3)c1 [Compound 136, N-(1-hydroxy-2-methylpropan-2-yl)-2-{[2-(4-methoxypyridin-2-yl)-5H,6H,7H-cyclopenta[d]pyrimidin-4-yl](methyl)amino}acetamide]",7.6
5,"CN(CC(=O)NC(C)(C)C)c1nc(-c2cccnn2)nc2c1CCC2 [Compound 175, N-tert-butyl-2-{methyl[2-(pyridazin-3-yl)-5H,6H,7H-cyclopenta[d]pyrimidin-4-yl]amino}acetamide]",<5.0
6,"COCCN(C)c1nc(-c2ccccn2)nc2sc(C)c(C)c12 [Compound 179, N-(2-methoxyethyl)-N,5,6-trimethyl-2-(pyridin-2-yl)thieno[2,3-d]pyrimidin-4-amine]",6.9
7,"Cc1sc2nc(-c3ccccn3)nc(N(C)CCN3CCCC3=O)c2c1C [Compound 180, 1-(2-{[5,6-dimethyl-2-(pyridin-2-yl)thieno[2,3-d]pyrimidin-4-yl](methyl)amino}ethyl)pyrrolidin-2-one]",6.1
8,"COc1ccc(NC(=O)CN(C)c2nc(-c3ccccn3)nc3sc(C)c(C)c23)cc1 [Compound 181, 2-{[5,6-dimethyl-2-(pyridin-2-yl)thieno[2,3-d]pyrimidin-4-yl](methyl)amino}-N-(4-methoxyphenyl)acetamide]",7.2
9,"Cc1sc2nc(-c3ccccn3)nc(N(C)CC(=O)Nc3ccccc3)c2c1C [Compound 182, 2-{[5,6-dimethyl-2-(pyridin-2-yl)thieno[2,3-d]pyrimidin-4-yl](methyl)amino}-N-phenylacetamide]",7
10,"Cc1sc2nc(-c3ccccn3)nc(N(C)CC(=O)Nc3cccnc3)c2c1C [Compound 183, 2-{[5,6-dimethyl-2-(pyridin-2-yl)thieno[2,3-d]pyrimidin-4-yl](methyl)amino}-N-(pyridin-3-yl)acetamide]",7.1
11,"Cc1sc2nc(-c3ccccn3)nc(N(C)CC(=O)N(C)C)c2c1C [Compound 184, 2-{[5,6-dimethyl-2-(pyridin-2-yl)thieno[2,3-d]pyrimidin-4-yl](methyl)amino}-N,N-dimethylacetamide]",6.9
12,"CN(c1nc(-c2ccccn2)nc2c1CCC2)C1CCc2ccccc21 (stereo not drawn) [Compound 185, N-(2,3-dihydro-1H-inden-1-yl)-N-methyl-2-(pyridin-2-yl)-5H,6H,7H-cyclopenta[d]pyrimidin-4-amine]",6.3
13,"O=C(O)CCCCCNc1nc(-c2ccccn2)nc2c1CCC2 [Compound 186, 6-{[2-(pyridin-2-yl)-5H,6H,7H-cyclopenta[d]pyrimidin-4-yl]amino}hexanoic acid]",5.3
14,"c1ccc(-c2nc3c(c(N4CCCOC5CCCC54)n2)CCC3)nc1 (stereo not drawn) [Compound 187, 2-(4-{octahydro-2H-cyclopenta[b][1,4]oxazepin-5-yl]-5H,6H,7H-cyclopenta[d]pyrimidin-2-yl)pyridine]",6.8
15,"CC1CCN(c2nc(-c3ccccn3)nc3c2CCC3)C1 (stereo not drawn) [Compound 188, 2-[4-(3-methylpyrrolidin-1-yl)-5H,6H,7H-cyclopenta[d]pyrimidin-2-yl]pyridine]",5.7
16,"OCCC1CCCCCN1c1nc(-c2ccccn2)nc2c1CCC2 (stereo not drawn) [Compound 189, 2-{1-[2-(pyridin-2-yl)-5H,6H,7H-cyclopenta[d]pyrimidin-4-yl]azepan-2-yl}ethan-1-ol]",6.7
17,"O=C(NC1CCN(c2nc(-c3ccccn3)nc3scc(-c4ccccc4)c23)CC1)c1cccnc1 [Compound 191, N-{1-[5-phenyl-2-(pyridin-2-yl)thieno[2,3-d]pyrimidin-4-yl]piperidin-4-yl}pyridine-3-carboxamide]",6.2
18,"Cc1sc2nc(-c3ccccn3)nc(NCCCO)c2c1-c1ccccc1 [Compound 192, 3-{[6-methyl-5-phenyl-2-(pyridin-2-yl)thieno[2,3-d]pyrimidin-4-yl]amino}propan-1-ol]",5.9

# More lines, now with the values ahead:
row,pEC50,Compound
1,7.2,"COc1ccc(NC(=O)C(C(C)C)N(C)c2nc(-c3ccccn3)nc3c2CCC3)cn1 (single isomer, unassigned) [Compound 316]"
2,7.1,"CC(C)C(C(=O)Nc1cnn(C)c1)N(C)c1nc(-c2ccccn2)nc2c1CCC2 (single isomer, unassigned) [Compound 317]"
3,7.2,"CC(C)[C@@H](C(=O)Nc1cnn(C)c1)N(C)c1nc(-c2ccccn2)nc2c1CCC2 (single isomer, unassigned) [Compound 318]"
4,6.4,"CCN(CCO)c1nc(-c2ccccn2)nc2scc(-c3ccccc3)c12 [Compound 193, 2-{ethyl[5-phenyl-2-(pyridin-2-yl)thieno[2,3-d]pyrimidin-4-yl]amino}ethan-1-ol]"
5,6.3,"CCc1cc(N2Cc3ccccc3N(C)CC2C)nc(-c2ccccn2)n1 (stereo not drawn) [Compound 194, 4-[6-ethyl-2-(pyridin-2-yl)pyrimidin-4-yl]-1,3-dimethyl-2,3,4,5-tetrahydro-1H-1,4-benzodiazepine]"
6,6.5,"Cc1cccc(C)c1NC(=O)CN(C)c1nc(-c2ccccn2)nc(C)c1C [Compound 195, 2-{[5,6-dimethyl-2-(pyridin-2-yl)pyrimidin-4-yl](methyl)amino}-N-(2,6-dimethylphenyl)acetamide]"
7,6.7,"Cc1nc(-c2ccccn2)nc(N(C)CCN(C)c2ccccc2)c1C [Compound 196, N,5,6-trimethyl-N-{2-[methyl(phenyl)amino]ethyl}-2-(pyridin-2-yl)pyrimidin-4-amine]"
8,6.3,"Cc1sc2nc(-c3ccccn3)nc(N(C)CC(C)O)c2c1-c1ccccc1 (stereo not drawn) [Compound 197, 1-{methyl[6-methyl-5-phenyl-2-(pyridin-2-yl)thieno[2,3-d]pyrimidin-4-yl]amino}propan-2-ol]"
9,6,"CCC1COCCN1c1nc(-c2ccccn2)nc2scc(-c3ccccc3)c12 (stereo not drawn) [Compound 198, 3-ethyl-4-[5-phenyl-2-(pyridin-2-yl)thieno[2,3-d]pyrimidin-4-yl]morpholine]"
10,5.8,"c1ccc(-c2csc3nc(-c4ccccn4)nc(N4CCN(CCN5CCCC5)CC4)c23)cc1 [Compound 199, 1-[5-phenyl-2-(pyridin-2-yl)thieno[2,3-d]pyrimidin-4-yl]-4-[2-(pyrrolidin-1-yl)ethyl]piperazine]"
11,5.3,"CN1CCN(c2nc(-c3ccccn3)nc3sc(-c4ccccc4)cc23)CC1 [Compound 200, 1-methyl-4-[6-phenyl-2-(pyridin-2-yl)thieno[2,3-d]pyrimidin-4-yl]piperazine]"
12,6,"CC(C#N)CN(C)c1nc(-c2ccccn2)nc2sc(-c3ccccc3)cc12 (stereo not drawn) [Compound 201, 2-methyl-3-{methyl[6-phenyl-2-(pyridin-2-yl)thieno[2,3-d]pyrimidin-4-yl]amino}propanenitrile]"
13,5.7,"CCN(CC)CCCNc1nc(-c2ccccn2)nc2scc(-c3ccccc3)c12 [Compound 202, N-[3-(diethylamino)propyl]-5-phenyl-2-(pyridin-2-yl)thieno[2,3-d]pyrimidin-4-amine]"
14,5.7,"c1ccc(-c2csc3nc(-c4ccccn4)nc(NC4CC4)c23)cc1 [Compound 203, N-cyclopropyl-5-phenyl-2-(pyridin-2-yl)thieno[2,3-d]pyrimidin-4-amine]"
15,5.6,"c1ccc(-c2csc3nc(-c4ccccn4)nc(N4CCC4)c23)cc1 [Compound 204, 2-[4-(azetidin-1-yl)-5-phenylthieno[2,3-d]pyrimidin-2-yl]pyridine]"
16,5.9,"c1ccc(-c2csc3nc(-c4ccccn4)nc(N4CCCC4)c23)cc1 [Compound 205, 2-[5-phenyl-4-(pyrrolidin-1-yl)thieno[2,3-d]pyrimidin-2-yl]pyridine]"
17,5.7,"c1ccc(-c2csc3nc(-c4ccccn4)nc(N4CCN(c5ccccc5)CC4)c23)cc1 [Compound 206, 1-phenyl-4-[5-phenyl-2-(pyridin-2-yl)thieno[2,3-d]pyrimidin-4-yl]piperazine]"
18,6,"c1ccc(-c2csc3nc(-c4ccccn4)nc(N4CCN(c5ccccn5)CC4)c23)cc1 [Compound 207, 1-[5-phenyl-2-(pyridin-2-yl)thieno[2,3-d]pyrimidin-4-yl]-4-(pyridin-2-yl)piperazine]"
